Data from publication PMC6369001 (European journal of medicinal chemistry, 2019).
Where a name gives a salt, the structure may show the parent alone.

How the values were obtained:
[1] = molecular target: Serotonin (5-HT2) receptors (Rattus norvegicus, UniProt P14842); assay: Serotonin; type: binding; conditions: ratio of Ki 5-HT2 to Ki σ2R
serotonin transporters = serotonin transporters (Rattus norvegicus, UniProt P31652); assay: Serotonin transporter binding; conditions: ratio of Ki serotonin transporter to Ki σ2R
Sequence of serotonin transporters (P31652 whole entry): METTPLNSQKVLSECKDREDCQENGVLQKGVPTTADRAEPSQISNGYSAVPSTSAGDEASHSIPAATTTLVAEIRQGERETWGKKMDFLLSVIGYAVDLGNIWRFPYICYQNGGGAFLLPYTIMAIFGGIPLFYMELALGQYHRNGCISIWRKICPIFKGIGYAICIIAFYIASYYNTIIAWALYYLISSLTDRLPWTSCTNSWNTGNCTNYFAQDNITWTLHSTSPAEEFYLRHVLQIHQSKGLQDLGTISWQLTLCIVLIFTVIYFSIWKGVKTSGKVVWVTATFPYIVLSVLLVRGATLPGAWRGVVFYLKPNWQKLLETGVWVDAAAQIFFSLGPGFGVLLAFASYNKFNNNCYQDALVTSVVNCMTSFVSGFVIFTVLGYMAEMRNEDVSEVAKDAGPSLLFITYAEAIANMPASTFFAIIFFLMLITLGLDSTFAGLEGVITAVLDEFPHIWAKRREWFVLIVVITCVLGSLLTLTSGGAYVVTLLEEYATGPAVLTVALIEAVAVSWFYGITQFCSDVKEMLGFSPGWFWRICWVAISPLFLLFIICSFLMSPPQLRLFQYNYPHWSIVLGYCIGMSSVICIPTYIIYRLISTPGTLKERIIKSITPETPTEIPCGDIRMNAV

[2] = molecular target: norepinephrine transporters (Rattus norvegicus, UniProt Q63380); assay: Norepinephrine transporter binding
Sequence of norepinephrine transporters (Q63380 1-617): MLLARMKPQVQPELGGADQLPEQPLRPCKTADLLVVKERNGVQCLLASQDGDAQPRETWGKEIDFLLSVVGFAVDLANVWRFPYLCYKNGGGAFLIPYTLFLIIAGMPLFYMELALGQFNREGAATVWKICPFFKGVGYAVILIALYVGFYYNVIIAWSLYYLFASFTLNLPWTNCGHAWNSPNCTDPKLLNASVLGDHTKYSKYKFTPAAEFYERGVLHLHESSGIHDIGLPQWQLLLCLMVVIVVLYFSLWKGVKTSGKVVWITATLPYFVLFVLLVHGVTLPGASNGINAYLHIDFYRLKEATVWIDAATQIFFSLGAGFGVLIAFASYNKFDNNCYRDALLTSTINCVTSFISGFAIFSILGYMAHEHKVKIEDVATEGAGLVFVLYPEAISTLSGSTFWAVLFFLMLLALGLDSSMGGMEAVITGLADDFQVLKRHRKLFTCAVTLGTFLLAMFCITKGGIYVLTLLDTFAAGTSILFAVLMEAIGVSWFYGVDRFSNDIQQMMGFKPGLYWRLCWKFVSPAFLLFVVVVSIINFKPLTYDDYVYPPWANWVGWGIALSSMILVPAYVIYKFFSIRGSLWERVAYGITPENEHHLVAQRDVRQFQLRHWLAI

effects of cocaine = conditions: cited from earlier work; for Effects against cocaine in behavioral models: rodents, ref 32 (compound 1), ref 34 (compound 2)
[3] = tested on: effects of methamphetamine; conditions: mice; ref 33 (compound 1), ref 35 (compound 2, pretreatment); cited from earlier work
σ2R = molecular target: T1, σ2R (Rattus norvegicus, UniProt Q5U3Y7); assay: σ2R radioligand competition binding; conditions: selectivity ratio σ1R over σ2R
T1 sequence (Q5U3Y7 1-176): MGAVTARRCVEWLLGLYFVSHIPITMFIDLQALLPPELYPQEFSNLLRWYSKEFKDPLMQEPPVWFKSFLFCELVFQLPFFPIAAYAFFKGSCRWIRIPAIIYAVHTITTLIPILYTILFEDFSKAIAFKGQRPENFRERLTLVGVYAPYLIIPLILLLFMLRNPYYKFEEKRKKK

[4] = tested on: cocaine-induced convulsions; assay: In vivo cocaine-induced convulsion studies; conditions: mice, 10 mg/kg i.p. pretreatment; P<0.005 vs vehicle, Fisher's exact test

Sequence of Serotonin (5-HT2) receptors (P14842 whole entry): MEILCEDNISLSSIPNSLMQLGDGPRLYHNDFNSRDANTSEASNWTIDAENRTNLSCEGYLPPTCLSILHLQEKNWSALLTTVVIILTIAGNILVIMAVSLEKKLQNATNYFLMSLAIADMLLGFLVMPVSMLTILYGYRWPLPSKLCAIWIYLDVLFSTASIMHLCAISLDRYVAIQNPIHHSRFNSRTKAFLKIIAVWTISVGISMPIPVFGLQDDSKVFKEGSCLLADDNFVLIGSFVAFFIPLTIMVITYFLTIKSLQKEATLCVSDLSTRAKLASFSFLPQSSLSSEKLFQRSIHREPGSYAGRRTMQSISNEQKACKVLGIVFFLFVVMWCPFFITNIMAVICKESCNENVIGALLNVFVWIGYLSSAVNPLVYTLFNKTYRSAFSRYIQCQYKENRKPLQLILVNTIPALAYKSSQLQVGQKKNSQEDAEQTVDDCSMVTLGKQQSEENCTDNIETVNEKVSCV

SMILES | Ki [2] | Effects against cocaine in behavioral models (effects of cocaine) | Effects against methamphetamine [3] | further results
CCCCCn1c(=O)n(CCCCN2CCN(c3ccc(F)cc3)CC2)c2ccccc21 [Compound 15, 1-{4-[4-(4-fluorophenyl)piperazin-1-yl]butyl}-3-pentyl-1,3-dihydrobenzimidazol-2-one dihydrochloride] | > 10 µM |  |  | 5-HT2/σ2R preference for σ2Rs [1]: 58 fold; 5-HTT/σ2R selectivity for σ2Rs (serotonin transporters): 104 fold
CC(=O)c1ccc2c(c1)oc(=O)n2CCCCN1CCN(c2ccc(F)cc2)CC1 [Compound 2, 6-acetyl-3-{4-[4-(4-fluorophenyl)piperazin-1-yl]butyl}-2(3H)-benzoxazolone] |  | reduced the toxic and stimulant effects of cocaine | afforded protection against methamphetamine-induced hyperthermia, and striatal dopaminergic and serotonergic neurotoxicity | Sedation and incoordination (effects of cocaine; acute treatment): caused sedation and incoordination
S=c1sc2ccccc2n1CCCCN1CCN(C2CCCCC2)CC1 [Compound 1, 3-[4-(4-cyclohexylpiperazin-1-yl)butyl]-2(3H)-benzothiazolethione] |  | produced both acute and subchronic effects against cocaine | mitigate the effects of methamphetamine | 
CCCn1c(=O)n(CCCCN2CCN(c3ccc(F)cc3)CC2)c2ccccc21 [Compound 14] | > 10 µM |  |  | Ki σ1/ Ki σ2 (σ2R): > 1000; Protective effect against cocaine-induced convulsions, statistical significance [4]: statistically significant
